Columns and labels:
[1] = test system: voltage gated outward current (Kv channels) in INS-1 cells; assay: Patch clamp measurement of whole cell outward current in INS-1 cells; format: cell-based, rat; conditions: for 4-AP sensitive current: INS-1 cells after 4 hours 100 nM dexamethasone; for inhibition of outward current: untreated INS-1 cells
Method: Cells were treated prior to the experiment with 100 nm dexamethasone for 4 h. (2A) whole cell current was induced by 200 ms voltage pulses increasing by 10 mv steps from −70 mv to +50 mv. (2B) Sensitivity to 4-ap (0.1 and 1 mm) and tea (1 and 10 mm) was tested in cells before (black columns) and after dexamethasone treatment (white columns). Voltage pulses of 200 ms duration from −70 to 50 mv were applied. Shown are means±sem for the indicated number of experiments. * denotes significance (p<0.05) to current in control, non treated cells at the same inhibitor concentration. Ins-1 cells were cultured as described before (Abel et al., 1996; Asfari et al., 1992). The external patch clamp solution contained (in mmol/l): 140 NaCl, 5.6 KCl, 1.2 MgCl2, 2.6 CaCl2, 0.5 glucose and 10 HEPES, PH 7.4. The internal solution contained (in mmol/l): 30 KCL, 95 K^+-gluconate, 1 MgCl2, 1.2 NaH2PO4, 4.8 Na2HPO4, 5 Na2ATP, 1 Na3GTP, 5 mmol/l EGTA, PH 7.2. An Epc9 Patch Clamp Amplifier (Heka Electronic, Lambrecht, Germany) Was Used For Current Measurements.
INS-1 cells were cultured for 2-4 days on glass cover slips coated with poly-L-ornithine (10 mg/l Sigma, Munich, Germany) at appropriate cell densities (1.2×10^6 cells/ml). The cover slips were mounted in a bath chamber on the stage of an inverted microscope (IM, Zeiss, Jena, Germany). The cells were kept at room temperature or at 34° C. as indicated for each experiment and superfused with a solution containing (in mmol/l): 140 NaCl, 5.6 KCl, 1.2 MgCl2, 2.6 CaCl2, 0.5 glucose and 10 HEPES, pH 7.4. The patch clamp pipettes (Clark-Medical, Reading, Great Britain) with a resistance of 4-6 MΩ were pulled using a DMZ-universal puller (Zeitz, Augsburg, Germany). They were filled with an internal solution containing (in mmol/l): 30 KCl, 95 K^+-gluconate, 1 MgCl2, 1.2 NaH2PO4, 4.8 Na2HPO4, 5 Na2ATP, 1 Na3GTP, 5 mmol/l EGTA, pH 7.2. An EPC9 patch clamp amplifier (Heka Electronic, Lambrecht, Germany) was used for current measurements. Only stable current measurements, i.e. when currents reached at least 90% of control current after removal of the respective inhibitory drug, were used for analysis.

INS-1 cells = assay: Glucose-induced insulin secretion of INS-1 cells; format: cell-based, rat; conditions: INS-1 cells pretreated with 100 nM dexamethasone
Method: Prior to the experiment INS-1 cells were treated in culture with dexamethasone, 100 nM, for 4 h. Cells were washed twice and preincubated in HEPES buffered salt solution containing (in mmol/l): 140 NaCl, 5.6 KCl, 1.2 MgCl2, 2.6 CaCl2, 0.5 glucose, 10 HEPES and 5 g/l bovine serum albumin, pH 7.4 at 37° C. Thereafter cells were incubated for 30 min at 37° C. in fresh solution containing the test substances at the appropriate concentrations. Insulin was measured by radioimmunoassay using rat insulin antiserum (Linco, Biotrend Chemikalien GmbH, Cologne, Germany), I^125-insulin (CIS Diagnostik GmbH, Dreieich, Germany) and rat insulin (Novo Nordisk, Mainz, Germany) as standard or by an Insulin Elisa kit (Mercodia, Uppsala, Sweden).
INS-1 cells (kindly provided by CB Wollheim, University of Geneva, Switzerland) derived from a rat insulinoma were cultured in HEPES-buffered RPMI 1640 supplemented with 10% fetal calf serum (Biochrom, Berlin, Germany), 1 mmol/l HEPES, 1 mmol/l Na pyruvate, 10 μmol/l β-mercaptoethanol (Sigma, Munich, Germany) and antibiotics as described elsewhere (Abel et al., 1996; Asfari et al., 1992). Cells were seeded at a cell density of 2.0-2.5 10^5 cells/ml in 24-well culture plates and cultured for 2 days prior to the experiment. Cells were washed twice with HEPES buffered salt solution containing (in mmol/l): 140 NaCl, 5.6 KCl, 1.2 MgCl2, 2.6 CaCl2, 0.5 glucose, 10 HEPES and 5 g/l bovine serum albumin, pH 7.4. and preincubated for 30 min at 37° C. […] Incubations were stopped on ice, medium removed and frozen at −20° C. until insulin released into the supernatant was measured by radioimmunoassay using rat insulin antiserum (Linco, Biotrend Chemikalien GmbH, Cologne, Germany), I^125-insulin (CIS Diagnostik GmbH, Dreieich, Germany) and rat insulin (Novo Nordisk, Mainz, Germany) as standard or an insulin Elisa kit (Mercodia, Uppsala, Sweden). Insulin content was measured after extraction with acid ethanol (1.5 (v/v) % HCl/75% ethanol) over night at 4° C.

[2] = target: nuclear glucocorticoid receptor (Mus musculus, UniProt P06537); conditions: Lambillotte et al., 1997; cited from earlier work
[3] = test system: SGK1 transcript levels in INS-1 cells; assay: Real time PCR of SGK1 mRNA in INS-1 cells; format: cell-based, rat; conditions: with 100 nM dexamethasone
[4] = test system: SGK1 protein in INS-1 cells; assay: Western blotting of SGK1 protein in INS-1 cells; format: cell-based, rat
Method: INS-1 cells were treated with 100 nM dexamethasone or vehicle (DMSO) in culture for the indicated periods of time.
Plots were incubated with antibodies against SGK1 (New England Biolabs, Beverly, Mass., USA). Bound antibody was visualized using a second antibody coupled to horse radish peroxidase.
Thereafter, culture medium was removed and cells were lysed in a solution containing 300 mM NaCl, 20 mM Tris HCl, pH 7.4, 1% (v/v) Triton X-100, 1% Sodiumdeoxycholate, 0.1% SDS, 2.5 mM EDTA, 10 μg/ml Pepstatin A, 10 μg/ml Aprotinin and 0.1 mM PMSF. Total cellular protein, 50 μg, quantified by Coomassie Blue G staining (Bradford dye assay, Biorad Laboratories GmbH, Munich, Germany) was subjected to SDS-PAGE (1%), and plotted onto a nitrocellulose membrane (Schleicher and Schuell, Dassel, Germany). Plots were incubated with antibodies against SGK1 (New England Biolabs, Beverly, Mass., USA). Bound antibody was visualized using a second antibody coupled to horse radish peroxidase.

Kv1.5 mRNA in INS cells = assay: Real time PCR of Kv1.5 mRNA in INS-1 cells; format: cell-based, rat; conditions: 100 nM dexamethasone, within 4 hours

Sequence of nuclear glucocorticoid receptor (P06537 whole entry): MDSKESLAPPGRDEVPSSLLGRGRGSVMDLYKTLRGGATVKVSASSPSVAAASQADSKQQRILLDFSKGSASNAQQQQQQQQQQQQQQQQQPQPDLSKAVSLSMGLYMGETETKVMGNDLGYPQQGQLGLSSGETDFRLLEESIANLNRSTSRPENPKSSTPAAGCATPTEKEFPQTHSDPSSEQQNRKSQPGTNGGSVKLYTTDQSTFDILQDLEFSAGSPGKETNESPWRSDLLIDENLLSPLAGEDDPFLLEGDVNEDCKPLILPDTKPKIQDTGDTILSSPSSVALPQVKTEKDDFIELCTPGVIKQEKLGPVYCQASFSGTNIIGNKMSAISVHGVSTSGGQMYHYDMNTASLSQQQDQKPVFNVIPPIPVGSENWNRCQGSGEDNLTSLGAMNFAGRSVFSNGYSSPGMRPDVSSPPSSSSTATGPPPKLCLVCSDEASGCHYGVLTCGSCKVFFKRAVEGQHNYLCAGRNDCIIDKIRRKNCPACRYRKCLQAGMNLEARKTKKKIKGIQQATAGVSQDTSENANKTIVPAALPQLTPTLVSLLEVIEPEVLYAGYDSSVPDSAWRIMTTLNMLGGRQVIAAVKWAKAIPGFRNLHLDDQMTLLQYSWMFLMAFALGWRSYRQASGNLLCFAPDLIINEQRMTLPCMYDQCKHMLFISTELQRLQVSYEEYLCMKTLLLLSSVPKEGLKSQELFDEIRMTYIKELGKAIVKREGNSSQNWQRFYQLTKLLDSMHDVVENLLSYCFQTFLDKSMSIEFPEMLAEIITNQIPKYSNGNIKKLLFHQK

For `Nc1ccncc1` [4-AP], the 4-AP sensitive current ([1]; 0.1 mM 4-AP) was 28%, the 4-AP sensitive current ([1]; 1 mM 4-AP) was 40% and the “inhibition of outward current” value ([1]; 0.1 mM 4-AP) was 10%. For the same compound, the “inhibition of outward current” value ([1]; 1 mM 4-AP) was 28% and the “effect on dexamethasone-induced inhibition of insulin secretion” value (INS-1 cells) was “reversed”.
In the case of `CC#C[C@]1(O)CC[C@H]2[C@@H]3CCC4=CC(=O)CCC4=C3[C@@H](c3ccc(N(C)C)cc3)C[C@@]21C` [RU486, mifepristone], the “effect on dexamethasone-induced inhibition of insulin secretion” value [2] is listed as “completely abolished”, the “effect on dexamethasone-induced increase of SGK1 mRNA transcript levels” value [3] is listed as “completely abrogated” and the “effect on dexamethasone-induced SGK1 expression” value ([4]; RU486 at 1 μmol/l, with 100 nM dexamethasone) is listed as “completely inhibited”. For the same compound, the “effect on dexamethasone-induced increase in SGK1 protein abundance” value ([4]; with 100 nM dexamethasone) was “fully reversed”.
For `CC[N+](CC)(CC)CC` [TEA], the “effect on dexamethasone-induced inhibition of insulin secretion” value (INS-1 cells) was “reversed”.
In the case of `C[C@@H]1C[C@H]2[C@@H]3CCC4=CC(=O)C=C[C@]4(C)[C@@]3(F)[C@@H](O)C[C@]2(C)[C@@]1(O)C(=O)CO` [dexamethasone], the “increase of abundance of Kv1.5 mRNA (factor)” value (Kv1.5 mRNA in INS cells) is reported as “approx. 10”, the “time until SGK1 protein / expression appears” value ([4]; 100 nM dexamethasone) is reported as ≤ 2 h and the inhibition at 0.1 µM (INS-1 cells; Rattus norvegicus, INS1) is reported as 62%.

— US20070191325A1, “Methods for altering insulin secretion” (priority 2004, published 2007)
